Common to all, as to type: in vivo
In assay [1] the test system is Cyperus difformis. Nature of the assay: Herbicidal activity in transplanted paddy rice. The conditions noted are these: Cyperus difformis, 504 h, paddy water application, after 3 weeks, read-out: % Control CYPDI; for pest or weed control at 17.5 g/ha: 17.5 g ai/ha; for pest or weed control at 70 g/ha: 70 g ai/ha. The method in brief: (§1)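 Rice seedlings transplanted at second to third leaf stage and weeds from seed were grown in flooded mud pots in a greenhouse (~29/26 °C, 14 h photoperiod). At second or third true leaf stage, acetone stock solutions were injected into the paddy water at the high rate and ½× to 1/16× dilutions. Solvent-blank controls.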

For assay [2], the system named is Echinochloa crus-galli. Nature of the assay: Herbicidal activity in transplanted paddy rice. The conditions noted are these: Echinochloa crus-galli, 504 h, paddy water application, after 3 weeks, read-out: % Control ECHCG; for pest or weed control at 17.5 g/ha: 17.5 g ai/ha; for pest or weed control at 70 g/ha: 70 g ai/ha. The method in brief: as §1
The subject of assay [3] is Monochoria vaginalis. Nature of the assay: Herbicidal activity in transplanted paddy rice. The conditions noted are these: Pontederia vaginalis, 504 h, paddy water application, after 3 weeks, read-out: % Control MOOVA; for pest or weed control at 17.5 g/ha: 17.5 g ai/ha; for pest or weed control at 70 g/ha: 70 g ai/ha. A digest of the protocol:
as §1

The test system of assay [4] is Scirpus juncoides. Nature of the assay: Herbicidal activity in transplanted paddy rice. The conditions noted are these: Schoenoplectiella juncoides, 504 h, paddy water application, after 3 weeks, read-out: % Control SCPJU; for pest or weed control at 17.5 g/ha: 17.5 g ai/ha; for pest or weed control at 70 g/ha: 70 g ai/ha. The method in brief:
as §1

Assay [5] has as its system rice (Orysa sativa var. Japonica). Nature of the assay: Herbicidal activity in transplanted paddy rice. The following applies: Oryza sativa, 504 h, transplant rice (crop), paddy water application, after 3 weeks; for pest or weed control at 17.5 g/ha: 17.5 g ai/ha; for pest or weed control at 70 g/ha: 70 g ai/ha. The method in brief: as §1
For assay [6], the system named is Galium aparine. Nature of the assay: Postemergence herbicidal activity in cereal crops. The conditions noted are these: Galium aparine, post-emergence, 480 h, post-emergent, after 20-22 days, read-out: % Control GALAP; for pest or weed control at 17.5 g/ha: 17.5 g ai/ha; for pest or weed control at 35 g/ha: 35 g ai/ha. The method in brief:
(§2)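 Greenhouse plants (about 18 °C day/17 °C night, ~14 h photoperiod) were grown 7-36 days to the second or third true leaf stage. They were then sprayed overhead at 187 L/ha with compound in acetone/water/isopropanol/DMSO/crop oil/Triton X-77 carrier. Blank-sprayed plants served as controls, and watering was by sub-irrigation to avoid wash-off.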

In assay [7] the test system is Lamium purpureum. Nature of the assay: Postemergence herbicidal activity in cereal crops. The following applies: Lamium purpureum, post-emergence, 480 h, post-emergent, after 20-22 days, read-out: % Control LAMPU; for pest or weed control at 17.5 g/ha: 17.5 g ai/ha; for pest or weed control at 35 g/ha: 35 g ai/ha. A digest of the protocol: as §2
For assay [8], the system named is Papaver rhoeas. Nature of the assay: Postemergence herbicidal activity in cereal crops. The following applies: Papaver rhoeas, post-emergence, 480 h, post-emergent, after 20-22 days, read-out: % Control PAPRH; for pest or weed control at 17.5 g/ha: 17.5 g ai/ha; for pest or weed control at 35 g/ha: 35 g ai/ha. A digest of the protocol: as §2
In assay [9] the test system is Veronica persica. Nature of the assay: Postemergence herbicidal activity in cereal crops. The following applies: Veronica persica, post-emergence, 480 h, post-emergent, after 20-22 days, read-out: % Control VERPE; for pest or weed control at 17.5 g/ha: 17.5 g ai/ha; for pest or weed control at 35 g/ha: 35 g ai/ha. The method in brief: as §2
Assay [10] deals with barley (Hordeum vulare). Nature of the assay: Postemergence herbicidal activity in cereal crops. The conditions noted are these: Hordeum, post-emergence, 480 h, crop, post-emergent, after 20-22 days, read-out: % Control HORVS; for pest or weed control at 17.5 g/ha: 17.5 g ai/ha; for pest or weed control at 35 g/ha: 35 g ai/ha. The method in brief:
as §2

The subject of assay [11] is wheat (Triticum aestivum). Nature of the assay: Postemergence herbicidal activity in cereal crops. The following applies: Triticum aestivum, post-emergence, 480 h, crop, post-emergent, after 20-22 days, read-out: % Control TRZAS; for plant injury at 17.5 g/ha: 17.5 g ai/ha; for plant injury at 35 g/ha: 35 g ai/ha. A digest of the protocol:
as §2

The results in this text go back to patent US20070179060A1, “6-(Poly-substituted aryl)-4-aminopicolinates and their use as herbicides” (priority 2006, published 2007).

Each structure is given as a SMILES string.

For `COC(=O)c1nc(-c2ccc(Br)c(OC)c2F)cc(N)c1Cl` [Compound 27, 4-amino-6-(4-bromo-2-fluoro-3-methoxyphenyl)-3-chloro-pyridine-2-carboxylic acid methyl ester], the pest or weed control at 17.5 g/ha in assay [1] is 100%; in [2], 45%; in assay [3], 100%; in assay [4], 99%; in [5], 0%; in [6], 99%. Moreover, the pest or weed control at 17.5 g/ha in assay [7] turned out to be 100%; in assay [8], 100%; in assay [9] it was 50%; in [10], 5%. The plant injury at 17.5 g/ha in assay [11] was determined as 5%.
As to `COC(=O)c1nc(-c2ccc(Cl)c(OC)c2F)cc(N)c1Cl` [Compound 42, 4-Amino-3-chloro-6-(4-chloro-2-fluoro-3-methoxyphenyl)pyridine-2-carboxylic acid methyl ester], the pest or weed control at 17.5 g/ha in assay [1] was 100%; in assay [2], 40%; in assay [3], 100%; in assay [4] it was 90%; in assay [5], 5%; in assay [6] it was 99%. Moreover, the pest or weed control at 17.5 g/ha in assay [7] was found to be 100%; in assay [8], 99%; in assay [9], 60%; in assay [10], 5%. Also, the plant injury at 17.5 g/ha in assay [11] amounted to 5%.
Take `COC(=O)c1nc(-c2ccc(Cl)c(OC)c2Cl)cc(N)c1Cl` [Compound 44, 4-Amino-3-chloro-6-(2,4-dichloro-3-methoxyphenyl)pyridine-2-carboxylic acid methyl ester]: the pest or weed control at 70 g/ha in [1] was determined as 100%; in assay [2], 50%; in assay [3], 90%; in [4] it was 95%; in assay [5], 0%. Moreover, the pest or weed control at 35 g/ha was 65% in assay [6]; 99% in assay [7]; 90% in assay [8]; 60% in assay [9]; 5% in assay [10]. Also, the plant injury at 35 g/ha in [11] is 10%.
`COC(=O)c1nc(-c2c(F)cc(Cl)c(OC)c2F)cc(N)c1Cl` [Compound 58, 4-Amino-3-chloro-6-(4-chloro-2,6-difluoro-3-methoxyphenyl)pyridine-2-carboxylic acid, methyl ester]: the pest or weed control at 17.5 g/ha in [1] came to 100%; in assay [2], 30%; in assay [3], 100%; in assay [4] it was 50%; in [5] it was 0%; in assay [6], 100%. The pest or weed control at 17.5 g/ha in assay [7] was found to be 100%; in assay [8] it was 99%; in assay [9], 60%; in assay [10], 0%. For the same molecule, in [11], the plant injury at 17.5 g/ha came out at 0%.
With `COC(=O)c1nc(-c2ccc(F)c(OC)c2F)cc(N)c1Cl` [Compound 70, 4-Amino-3-chloro-6-(2,4-difluoro-3-methoxyphenyl)pyridine-2-carboxylic acid, methyl ester], the pest or weed control at 70 g/ha in assay [1] was determined as 95%; in [2] it was 45%; in [3], 100%; in assay [4], 95%; in assay [5], 0%. For the same molecule, the pest or weed control at 17.5 g/ha in [6] worked out at 99%; in assay [7], 100%; in assay [8] it was 99%; in assay [9], 60%; in [10], 0%. In addition, in [11], the plant injury at 17.5 g/ha worked out at 0%.
Turning to `COC(=O)c1nc(-c2c(F)cc(Br)c(OC)c2F)cc(N)c1Cl` [Compound 77, 4-Amino-6-(4-bromo-2,6-difluoro-3-methoxyphenyl)-3-chloropyridine-2-carboxylic acid, methyl ester], the pest or weed control at 35 g/ha in assay [1] (35 g ai/ha) was determined as 100%; in assay [2] (35 g ai/ha), 70%; in assay [3] (35 g ai/ha) it was 100%; in assay [4] (35 g ai/ha), 99%; in [5] (35 g ai/ha), 0%. Moreover, the pest or weed control at 17.5 g/ha in assay [6] was determined as 99%; in [7] it was 100%; in assay [8] it was 99%; in assay [9], 65%; in assay [10], 0%. The plant injury at 17.5 g/ha in assay [11] came out at 0%.
Regarding `COc1c(Cl)ccc(-c2cc(N)c(Cl)c(C(=O)O)n2)c1F` [Compound 100, 4-Amino-3-chloro-6-(4-chloro-2-fluoro-3-methoxyphenyl)pyridine-2-carboxylic acid], the pest or weed control at 17.5 g/ha in assay [1] was found to be 100%; in assay [2] it was 30%; in assay [3], 100%; in assay [4] it was 80%; in assay [5], 10%; in assay [6], 90%. Besides, the pest or weed control at 17.5 g/ha in assay [7] was 100%; in assay [8], 95%; in [9], 65%; in assay [10] it was 5%. The plant injury at 17.5 g/ha in [11] is 10%.
Consider `COc1c(Cl)ccc(-c2cc(N)c(Cl)c(C(=O)O)n2)c1Cl` [Compound 103, 4-Amino-3-chloro-6-(2,4-dichloro-3-methoxyphenyl)pyridine-2-carboxylic acid], for which the pest or weed control at 70 g/ha in [1] turned out to be 100%; in assay [2], 40%; in assay [3], 100%; in [4], 95%; in assay [5], 10%. Moreover, the pest or weed control at 35 g/ha in [6] worked out at 60%; in assay [7], 95%; in assay [8], 100%; in assay [9] it was 75%; in [10] it was 0%. The plant injury at 35 g/ha in [11] turned out to be 0%.
